Source: patent US20090088380A1, “GHRH ANALOGS AND THERAPEUTIC USES THEREOF” (priority 2007, published 2009)
Values joined by “and” are separate entries in the source; they are usually repeats but may differ in a detail not shown here. Equal entries are not always repeated. Non-standard residues stand in square brackets, D forms with d. Residues, ends and D or L forms follow the SMILES beside them.

Experiments:
[1] = target: T1, hGHRH(1-44)-NH2 binding sites in rat anterior pituitary (Rattus norvegicus, UniProt Q02644); experiment: Relative binding affinity in rat anterior pituitary preparations, [125I-Tyr10]hGHRH(1-44)-NH2 radioligand; conditions: values compared to hGHRH(1-29)-NH2
T1 construct: from tissue; host or cells: anterior pituitary of 2-month old male Sprague Dawley rats
T1 sequence (Q02644 23-423 isoform Q02644-2 limits assumed): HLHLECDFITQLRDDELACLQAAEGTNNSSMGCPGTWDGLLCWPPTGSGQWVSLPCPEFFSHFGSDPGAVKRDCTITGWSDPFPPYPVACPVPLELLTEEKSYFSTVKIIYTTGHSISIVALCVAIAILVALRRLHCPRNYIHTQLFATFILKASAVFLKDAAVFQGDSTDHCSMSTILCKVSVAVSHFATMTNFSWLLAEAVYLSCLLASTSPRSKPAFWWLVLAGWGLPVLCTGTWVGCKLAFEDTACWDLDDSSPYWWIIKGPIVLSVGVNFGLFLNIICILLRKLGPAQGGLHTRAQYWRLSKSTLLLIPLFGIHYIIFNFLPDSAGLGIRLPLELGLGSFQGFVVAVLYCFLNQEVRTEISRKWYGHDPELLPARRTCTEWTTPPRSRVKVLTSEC
Source text: Initial selection of a candidate from the original 14 polysubstituted GHRH analogs described in the U.S. Pat. No. 5,854,216 was based upon in vitro data on receptor affinity in 2-month old male Sprague Dawley rat anterior pituitary preparations. The embodiments are based on the affinity of selected GHRH analogs for the human GHRH receptor (hGHRH-R) in baby hamster kidney (BHK) cells transfected with hGHRH-R, and on resistance to proteolysis in rat serum, human plasma or human serum. More precisely, the preferred drug candidates were selected, as compared to hGHRH(1-29)-NH2, for: i-their increased relative binding affinity to hGHRH(1-44)-NH2 binding sites in rat anterior pituitary in vitro as well as to hGHRH-R in BHK-expressing cells in vitro; and ii-their relative resistance to proteolysis in vitro.

[2] = In vitro proteolysis assay in rat serum; assay type: in vitro ADME
Method: (§1) Proteolysis was stopped by adding 800 μl of ice-cold stop buffer (potassium-phosphate buffer, acidified to pH 0.8 with trifluoroacetic acid (TFA) and boiling 5 min (rat serum only). After centrifugation (12000 g, 5 min, 4° C.) (rat serum only), serum-peptide mixtures were passed through a conditioned Sep-Pak C-18 cartridge to extract native GHRH or a GHRH analog residual concentrations from serum proteins. The native GHRH or the analog was eluted in 2 ml of 50% acetonitrile-0.01% TFA/50% 0.01% aqueous TFA. 200 μl of extracted peptide, representing 1 μg of GHRH or analog at time 0, was quantified by analytical HPLC, using one μ-Bondapak C18 column (10 μm particle size, 0.39×15 cm) (rat serum) or two C18 columns in series (human serum and plasma) and a binary solvent system composed of NaClO4 0.01 M, pH 2.5 and acetonitrile. A linear gradient from 30 to 60% acetonitrile over 45 min (rat serum) or 30 to 50% (human serum and plasma) was used. Elution of intact peptide was monitored at 214 nm and residual concentration determined by assessment of peak surface areas.

[3] = In vitro proteolysis assay in human serum; assay type: in vitro ADME
Method: as §1

[4] = test system: malnourished subjects with CKD; experiment: Phase II CKD: DEXA scan; assay type: in vivo, human
Method: The DEXA scan was performed by an appropriately qualified person and in accordance with the agreed guidelines. Mean body composition values (fat free mass, fat mass and bone mineral content) were recorded for the total body and for defined regional areas (arms, legs, trunk), if possible.
Mean body composition values (total tissue, fat mass, lean tissue and bone mineral content) were recorded for the total body and defined regional areas (arms, legs, trunk) if possible. FFM was derived for total body and for regional areas.

[5] = test system: malnourished subjects with CKD; experiment: Phase II CKD: dietary assessment (spontaneous nutrient intake); assay type: in vivo, human; conditions: ITT
Method: Dietary assessments were performed at the baseline visit and were repeated on Day 28. The subjects were asked to write down everything they ate and drank throughout the 3 days preceding the visit. The local dietician then calculated the mean amount of carbohydrates, fat and protein consumed by the subjects per day and calculated energy intake.

[6] = test system: malnourished subjects with CKD; experiment: Phase II CKD: abnormal findings on physical examination; assay type: in vivo, human; conditions: safety analysis set
Source text: There were no body systems in which there was a trend towards change in physical examination. Any physical examination findings after the screening visit were reported as AEs.

[7] = Baseline, listed as GHRH(1-29)NH2 synthetic analog
[8] = Day 28, listed as GHRH(1-29)NH2 synthetic analog

Compound: CC[C@H](C)[C@H](NC(=O)[C@H](C)NC(=O)[C@H](CC(=O)O)NC(=O)[C@@H](C)NC(=O)[C@@H](N)Cc1ccc(O)cc1)C(=O)N[C@@H](Cc1ccccc1)C(=O)N[C@H](C(=O)N[C@@H](CC(N)=O)C(=O)N[C@@H](CO)C(=O)N[C@H](Cc1ccc(O)cc1)C(=O)N[C@@H](CCCNC(=N)N)C(=O)N[C@@H](CCCCN)C(=O)N[C@H](C(=O)N[C@@H](CC(C)C)C(=O)N[C@H](C)C(=O)N[C@@H](CCC(N)=O)C(=O)N[C@@H](CC(C)C)C(=O)N[C@@H](CO)C(=O)N[C@@H](C)C(=O)N[C@@H](CCCNC(=N)N)C(=O)N[C@@H](CCCCN)C(=O)N[C@@H](CCCCN)C(=O)N[C@@H](CC(C)C)C(=O)N[C@@H](CCC(N)=O)C(=O)N[C@@H](CC(=O)O)C(=O)N[C@H](C(=O)N[C@@H](CCSC)C(=O)N[C@@H](CO)C(=O)N[C@@H](CCCNC(=N)N)C(N)=O)[C@@H](C)CC)C(C)C)[C@@H](C)O [GHRH analog #5, [D-Ala^2, D-Tyr^10, D-Ala^15, Lys^22] hGHRH(1-29)-NH2] (H-Y[dA]DAIFTNS[dY]RKVL[dA]QLSARKKLQDIMSR-NH2)
- Relative binding affinity in rat anterior pituitary [1]: 1.04 ± 0.40
- Relative resistance to proteolysis in vitro ([2]; compared to hGHRH(1-29)-NH2): 3.13
- Residual concentration (% of initial concentration) ([2]; incubation 0 min): 100 ± 0 % of initial concentration
- R2 (60 min) ([3]; 60-min incubation in human serum): 1.55 ± 0.04
- R2 (180 min) ([3]; 180-min incubation in human serum): 2.93 ± 0.87
- Mean residual amount (%) ([3]; human serum, IT 0 min): 100%
- Mean fat mass (%) as % of the mean in placebo group ([4]; Day 28): 83%
- Mean fat mass (kg) as % of the mean in placebo group ([4]; Day 28): 84%
- Arms - bone mineral content: mean (SD) ([4]; ITT, Baseline): 0.317 (0.109) kg
- Arms - fat mass: mean (SD) ([4]; ITT, Baseline): 2.22 (1.65) kg
- Legs - bone mineral content: mean (SD) ([4]; ITT, Baseline): 0.791 (0.273) kg
- Legs - fat mass: mean (SD) ([4]; ITT, Baseline): 5.26 (2.86) kg
- Total body - bone mineral content (%): mean (SD) ([4]; ITT, Baseline): 3.63 (0.68) %
- Total body - bone mineral content (kg): mean (SD) ([4]; ITT, Baseline): 2.236 (0.656) kg
- Total body - fat free mass (%): mean (SD) ([4]; ITT, Baseline): 72.11 (14.25) %
- Total body - fat free mass (kg): mean (SD) ([4]; ITT, Baseline): 43.83 (10.90) kg
- Total body - fat mass (%): mean (SD) ([4]; ITT, Baseline): 27.89 (14.25) %
- Total body - fat mass (kg): mean (SD) ([4]; ITT, Baseline): 17.10 (9.48) kg
- Trunk - bone mineral content: mean (SD) ([4]; ITT, Baseline): 0.699 (0.239) kg
- Trunk - fat mass: mean (SD) ([4]; ITT, Baseline): 8.52 (4.73) kg
- Trunk - bone mineral content: mean (SD) ([4]; ITT, Baseline, listed as GHRH(1-29)NH2 synthetic analog): 0.699 kg
- Arms - bone mineral content: mean (SD) ([4]; ITT, Day 28): 0.300 (0.106) kg
- Arms - fat mass: mean (SD) ([4]; ITT, Day 28): 2.01 (1.25) kg
- Legs - bone mineral content: mean (SD) ([4]; ITT, Day 28): 0.784 (0.281) kg
- Legs - fat mass: mean (SD) ([4]; ITT, Day 28): 5.31 (3.05) kg
- Total body - bone mineral content (%): mean (SD) ([4]; ITT, Day 28): 3.58 (0.69) %
- Total body - bone mineral content (kg): mean (SD) ([4]; ITT, Day 28): 2.225 (0.674) kg
- Total body - fat free mass (%): mean (SD) ([4]; ITT, Day 28): 73.16 (14.31) %
- Total body - fat free mass (kg): mean (SD) ([4]; ITT, Day 28): 44.85 (11.61) kg
- Total body - fat mass (%): mean (SD) ([4]; ITT, Day 28): 26.84 (14.31) %
- Total body - fat mass (kg): mean (SD) ([4]; ITT, Day 28): 16.51 (9.51) kg
- Trunk - bone mineral content: mean (SD) ([4]; ITT, Day 28): 0.718 (0.253) kg
- Trunk - fat mass: mean (SD) ([4]; ITT, Day 28): 8.17 (4.91) kg
- Trunk - bone mineral content: mean (SD) ([4]; ITT, Day 28, listed as GHRH(1-29)NH2 synthetic analog): 0.718 kg
- Total body - fat free mass (kg): ratio of means; higher than placebo ([4]; ITT, Day 28, vs placebo): 2.94 kg
- Total body - fat mass (%): ratio of means ([4]; ITT, Day 28, vs placebo): 0.83
- Total body - fat mass (kg): ratio of means ([4]; ITT, Day 28, vs placebo): 0.84
- Total body - fat free mass (kg): ratio of means; higher than placebo ([4]; ITT, Day 28, vs placebo, listed as GHRH(1-29)NH2 synthetic analog): 2.9 kg
- Decrease from baseline in median FM ([4]; day 28): 0.4 kg
- FM lost on average in arms ([4]; day 28): 0.22 kg
- FM lost on average in trunk ([4]; day 28): 0.30 kg
- Increase from baseline in median FFM ([4]; day 28): 1.6 kg
- Mean FFM gained, arms ([4]; day 28): 0.15 kg
- Mean FFM gained, legs ([4]; day 28): 1.03 kg
- Mean FFM gained, total body ([4]; day 28): 1.83 kg
- Mean FFM gained, trunk ([4]; day 28): 0.59 kg
- Mean total FM lost ([4]; day 28): 0.51 kg
- Energy intake: mean (SD) ([5]; Baseline): 1654 kcal/day and 1654.45 (394.75) kcal/day
- Protein intake: mean (SD) ([5]; Baseline): 62.46 g/day and 62.46 (17.71) g/day
- Energy intake: mean (SD) [5, 7]: 1654.5 kcal/day
- Protein intake: mean (SD) [5, 7]: 62.5 g/day
- Energy intake: mean (SD) ([5]; Day 28): 1533 kcal/day and 1532.70 (384.52) kcal/day
- Protein intake: mean (SD) ([5]; Day 28): 58.49 g/day and 58.49 (19.76) g/day
- Energy intake: mean (SD) [5, 8]: 1532.7 kcal/day
- Protein intake: mean (SD) [5, 8]: 58.5 g/day
- Subjects with abnormal findings on physical examination: Cardiovascular (%) ([6]; Baseline): (46.2%)
- Subjects with abnormal findings on physical examination: Central nervous system (%) ([6]; Baseline): (0.0%)
- Subjects with abnormal findings on physical examination: Ear (%) ([6]; Baseline): (15.4%)
- Subjects with abnormal findings on physical examination: Gastrointestinal (%) ([6]; Baseline): (30.8%)
- Subjects with abnormal findings on physical examination: Genitourinary (%) ([6]; Baseline): (23.1%)
- Subjects with abnormal findings on physical examination: Musculoskeletal (%) ([6]; Baseline): (53.8%)
- Subjects with abnormal findings on physical examination: Nose and throat (%) ([6]; Baseline): (38.5%)
- Subjects with abnormal findings on physical examination: Other (%) ([6]; Baseline): (23.1%)
- Subjects with abnormal findings on physical examination: Respiratory (%) ([6]; Baseline): (0.0%)
- Subjects with abnormal findings on physical examination: Skin (%) ([6]; Baseline): (69.2%)
- Subjects with abnormal findings on physical examination: Cardiovascular (%) ([6]; Day 28): (25.0%)
- Subjects with abnormal findings on physical examination: Central nervous system (%) ([6]; Day 28): (0.0%)
- Subjects with abnormal findings on physical examination: Ear (%) ([6]; Day 28): (16.7%)
- Subjects with abnormal findings on physical examination: Gastrointestinal (%) ([6]; Day 28): (41.7%)
- Subjects with abnormal findings on physical examination: Genitourinary (%) ([6]; Day 28): (16.7%)
- Subjects with abnormal findings on physical examination: Musculoskeletal (%) ([6]; Day 28): (50.0%)
- Subjects with abnormal findings on physical examination: Nose and throat (%) ([6]; Day 28): (41.7%)
- Subjects with abnormal findings on physical examination: Other (%) ([6]; Day 28): (41.7%)
- Subjects with abnormal findings on physical examination: Respiratory (%) ([6]; Day 28): (8.3%)
- Subjects with abnormal findings on physical examination: Skin (%) ([6]; Day 28): (75.0%)
